The values that follow are results of earlier work, collected in patent US20020072508A1, “Anti-depressant, stress suppressor and mood improver” (LIPOGEN LTD., priority 2000, published 2002).

The data set concerns withdrawal symptoms associated with addiction (cigarettes, alcohol, narcotics).

Turning to phosphatidic acid, the “withdrawal symptoms associated with addiction” value is “alleviate withdrawal symptoms”.
